Measurements taken from the supplement of paper PMC10307832.

Legend:
Assay in all cases: relative viability (nuclei count vs DMSO), 5 days (fraction); higher = more cells survive
Zosuquidar + Lapatinib = compound: O[C@@H](COc1cccc2ncccc12)CN1CCN([C@@H]2c3ccccc3[C@@H]3[C@H](c4ccccc42)C3(F)F)CC1 [Zosuquidar] + CS(=O)(=O)CCNCc1ccc(-c2ccc3ncnc(Nc4ccc(OCc5cccc(F)c5)c(Cl)c4)c3c2)o1 [Lapatinib] (partner 2 µM)
Procedure, shortened: (§1)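 One day after seeding in 1536-well plates, lung cancer cell lines were dosed by pin tool. Dosing was either single-drug or a fixed anchor-drug dose plus five library-drug doses (not always all listed) in √10 steps. After 5 days, nuclei were stained in one fix-and-stain step and counted on 4× images, and relative viability is the nuclei count of treated wells over that of vehicle wells, given as the median of duplicate plates.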

Kobe2602 + Phenformin = compound: C1=CC(=CC=C1NC(=S)NNC2=C(C=C(C=C2[N+](=O)[O-])C(F)(F)F)[N+](=O)[O-])F [Kobe2602] + N=C(N)NC(=N)NCCc1ccccc1 [Phenformin] (partner 250 µM)
Procedure, shortened: as §1

Kobe2602 + Decitabine = compound: C1=CC(=CC=C1NC(=S)NNC2=C(C=C(C=C2[N+](=O)[O-])C(F)(F)F)[N+](=O)[O-])F [Kobe2602] + Nc1ncn([C@H]2C[C@H](O)[C@@H](CO)O2)c(=O)n1 [Decitabine] (partner 2 µM)
Procedure, shortened: as §1

Cabozantinib + Alpelisib = compound: COc1cc2nccc(Oc3ccc(NC(=O)C4(C(=O)Nc5ccc(F)cc5)CC4)cc3)c2cc1OC [Cabozantinib] + Cc1nc(NC(=O)N2CCC[C@H]2C(N)=O)sc1-c1ccnc(C(C)(C)C(F)(F)F)c1 [Alpelisib] (partner 2 µM)
Procedure, shortened: as §1

Row | Cell Line | relative viability (Zosuquidar + Lapatinib; first compound 0.01 µM) | relative viability (Zosuquidar + Lapatinib; first compound 0.03162 µM) | relative viability (Zosuquidar + Lapatinib; first compound 0.1 µM) | relative viability (Zosuquidar + Lapatinib; first compound 0.3162 µM) | relative viability (Zosuquidar + Lapatinib; first compound 1 µM) | relative viability (Kobe2602 + Phenformin; first compound 0.2 µM) | relative viability (Kobe2602 + Phenformin; first compound 0.6325 µM) | relative viability (Kobe2602 + Phenformin; first compound 2 µM) | relative viability (Kobe2602 + Phenformin; first compound 6.325 µM) | relative viability (Kobe2602 + Phenformin; first compound 20 µM) | relative viability (Kobe2602 + Decitabine; first compound 0.2 µM) | relative viability (Kobe2602 + Decitabine; first compound 0.6325 µM) | relative viability (Kobe2602 + Decitabine; first compound 2 µM) | relative viability (Kobe2602 + Decitabine; first compound 6.325 µM) | relative viability (Kobe2602 + Decitabine; first compound 20 µM) | relative viability (Cabozantinib + Alpelisib; first compound 0.06325 µM) | relative viability (Cabozantinib + Alpelisib; first compound 0.2 µM) | relative viability (Cabozantinib + Alpelisib; first compound 0.6325 µM) | relative viability (Cabozantinib + Alpelisib; first compound 2 µM) | relative viability (Cabozantinib + Alpelisib; first compound 0.02 µM)
1 | LK-2 | 0.985 | 0.892 | 0.923 | 1.18 | 0.946 | 0.461 | 0.579 | 0.489 | 0.624 | 0.516 | 0.379 | 0.293 | 0.283 | 0.313 | 0.442 | 1.22 | 1.08 | 1.23 | 0.856 | 
2 | SW 1573 | 1.09 | 0.985 | 1.08 | 1.4 | 1.01 | 0.346 | 0.47 | 0.378 | 0.346 | 0.168 | 0.483 | 0.614 | 0.453 | 0.493 | 0.318 | 0.719 | 0.77 | 0.792 | 0.651 | 1.02
3 | NCI-H1915 | 0.988 | 0.996 | 0.953 | 1.05 | 1.01 | 0.366 | 0.38 | 0.37 | 0.366 | 0.361 | 0.247 | 0.263 | 0.256 | 0.265 | 0.269 | 1.08 | 1.03 | 1.08 | 1.07 | 1.1
4 | NCI-H661 | 0.6 | 0.423 | 0.399 | 0.639 | 0.559 | 0.273 | 0.277 | 0.261 | 0.298 | 0.298 | 0.564 | 0.598 | 0.589 | 0.561 | 0.612 | 0.758 | 0.725 | 0.755 | 0.609 | 0.544
5 | NCI-H520 | 0.878 | 0.827 | 0.569 | 0.855 | 0.982 | 0.539 | 0.582 | 0.632 | 0.654 | 0.539 | 0.543 | 0.616 | 0.563 | 0.526 | 0.48 | 0.928 | 0.958 | 0.713 | 0.833 | 0.92
6 | COR-L 105 | 0.35 | 0.389 | 0.324 | 0.366 | 0.386 | 0.487 | 0.491 | 0.422 | 0.542 | 0.494 | 0.706 | 0.679 | 0.473 | 0.739 | 0.602 | 1.08 |  | 0.945 | 0.859 | 0.898
7 | NCI-H2009 | 0.931 | 0.905 | 0.891 | 1.09 | 0.849 | 0.454 | 0.503 | 0.504 | 0.421 | 0.305 | 0.358 | 0.414 | 0.405 | 0.394 | 0.372 | 1.21 | 1.16 | 1.14 | 1.21 | 1.25
8 | NCI-H1563 | 0.99 | 0.81 | 0.813 | 1.04 | 0.855 | 0.684 | 0.719 | 0.675 | 0.668 | 0.676 |  |  |  |  |  | 0.916 | 0.912 | 0.864 | 0.806 | 0.931
9 | RERF-LC-KJ | 0.786 | 0.902 | 0.841 | 0.943 | 0.811 | 0.437 | 0.413 | 0.395 | 0.413 | 0.377 | 0.648 | 0.69 | 0.576 | 0.591 | 0.37 | 0.877 | 0.733 | 0.847 | 0.675 | 0.864
10 | NCI-H1703 | 1.17 | 1.27 | 0.96 | 1.45 | 1.16 |  |  |  |  |  |  |  |  |  |  | 0.182 | 0.223 | 0.23 | 0.151 | 0.265
11 | NCI-H358 | 0.475 | 0.415 | 0.366 | 0.55 | 0.492 | 0.381 | 0.391 | 0.323 | 0.371 | 0.353 | 0.222 | 0.219 | 0.225 | 0.177 | 0.244 | 1.13 | 0.852 | 0.803 | 0.824 | 0.912
12 | EBC-1 | 0.215 | 0.234 | 0.206 | 0.198 | 0.226 |  |  |  |  |  |  |  |  |  |  | 0.931 | 0.208 | 0.185 | 0.22 | 0.718
13 | NCI-H1650 | 0.783 | 0.696 | 0.684 | 1.22 | 0.875 | 0.483 | 0.57 | 0.395 | 0.388 | 0.366 | 0.42 | 0.473 | 0.381 | 0.338 | 0.366 |  |  |  |  | 
14 | NCI-H1648 |  |  |  |  |  |  |  |  |  |  | 0.657 | 0.489 | 0.402 | 0.533 | 0.509 |  |  |  |  | 
15 | NCI-H1299 | 0.971 | 0.981 | 0.944 | 1.01 | 0.958 |  |  |  |  |  |  |  |  |  |  | 1.06 | 1.12 | 1 | 1.12 | 1.06
16 | NCI-H1623 |  |  |  |  |  | 0.633 | 0.571 | 0.563 | 0.555 | 0.589 |  |  |  |  |  |  |  |  |  | 
17 | NCI-H2228 | 1.2 | 0.937 | 0.956 | 1.06 | 1.21 | 0.35 | 0.449 | 0.359 | 0.295 | 0.361 |  |  |  |  |  | 0.922 | 0.784 | 0.564 | 0.711 | 0.794
18 | NCI-H522 |  |  |  |  |  | 0.731 | 0.63 | 0.646 | 0.732 | 0.623 | 0.693 | 0.654 | 0.649 | 0.642 | 0.756 |  |  |  |  | 
19 | Calu-6 | 1.04 | 1.09 | 1.2 | 1.06 | 1.06 |  |  |  |  |  |  |  |  |  |  | 1.09 | 1.05 | 1.04 | 0.906 | 1.02
20 | ChaGo-K-1 |  |  |  |  |  | 0.564 | 0.574 | 0.523 | 0.463 | 0.463 | 0.538 | 0.524 | 0.512 | 0.469 | 0.481 |  |  |  |  | 
21 | LCLC-103H |  |  |  |  |  | 0.359 | 0.381 | 0.32 | 0.343 | 0.351 | 0.744 | 0.703 | 0.79 | 0.778 | 0.718 | 0.859 | 0.951 | 0.861 | 0.752 | 1.08
